ChEMBL document CHEMBL1201862, “PubChem BioAssay data set” (2004)
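Five compound concentrations were applied to cells in 96-well plates for 48 hours; endpoints were derived by simple linear interpolation of the resulting dose-response curve. At the GI50, growth is halved.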 The source made the active and inactive calls. Rule as the data show it: active = GI50 up to about 1.1 µM and inactive = higher.

Experiments:
Assay in all cases: growth of human tumour cells (NCI), 48 h
[1] = tested on: HCT-15
[2] = tested on: SN12C
[3] = tested on: SK-MEL-2
[4] = tested on: OVCAR-5
[5] = tested on: NCI-H23
[6] = tested on: TK-10
[7] = tested on: HT-29
[8] = tested on: NCI-H460
[9] = tested on: HOP-62
[10] = tested on: HCC 2998
[11] = tested on: A498
[12] = tested on: U-251
[13] = tested on: Malme-3M
[14] = tested on: KM12
[15] = tested on: LOX IMVI
[16] = tested on: SR
[17] = tested on: HOP-92

Structure (SMILES) | GI50 [1] [µM] | GI50 [2] | GI50 [3] | GI50 [4] | GI50 [5] | GI50 [6] | GI50 [7] | GI50 [8] | GI50 [9] | GI50 [10] | GI50 [11] | GI50 [12] | GI50 [13] | GI50 [14] | GI50 [15] | GI50 [16] | GI50 [17]
COc1ccc(/C=C2\CCc3ccccc3C2=O)cc1OC | 17.2 | 25.2 µM (inactive) | 31.1 µM (inactive) | 67.3 µM (inactive) | 19.6 µM (inactive) | 32.6 µM (inactive) | 27.8 µM (inactive) | 34.8 µM (inactive) | 76.7 µM (inactive) | 45.5 µM (inactive) | 46.6 µM (inactive) | 31 µM (inactive) | 38.3 µM (inactive) | 19.6 µM (inactive) |  |  | 
CN(C)CCn1cnc2ncccc2c1=O |  | > 100 µM (inactive) | > 100 µM (inactive) | > 100 µM (inactive) | > 100 µM (inactive) | > 100 µM (inactive) | > 100 µM (inactive) | > 100 µM (inactive) | > 100 µM (inactive) | > 100 µM (inactive) |  | > 100 µM (inactive) | > 100 µM (inactive) | > 100 µM (inactive) | > 100 µM (inactive) | > 100 µM (inactive) | > 100 µM (inactive)
O=C1NC(=O)C2C1C1C=C3c4ccccc4N(c4ccccc4)C32[C@H]2C(=O)NC(=O)[C@@H]12 (stereo partly specified) | > 100 | > 100 µM (inactive) | > 100 µM (inactive) | > 100 µM (inactive) |  | > 100 µM (inactive) | > 100 µM (inactive) | > 100 µM (inactive) | > 100 µM (inactive) | > 100 µM (inactive) | > 100 µM (inactive) |  | > 100 µM (inactive) | > 100 µM (inactive) | > 100 µM (inactive) |  | > 100 µM (inactive)
CC(C)(C)c1ccc2c(c1)S(=O)(=O)Nc1ccc(Cl)cc1NS(=O)(=O)c1cc(C(C)(C)C)ccc1OCCOCCOCCO2 | > 100 | 43.5 µM (inactive) | 45.6 µM (inactive) | > 100 µM (inactive) | 32.4 µM (inactive) | 37.5 µM (inactive) | 99.3 µM (inactive) | 26 µM (inactive) | 32.3 µM (inactive) | > 100 µM (inactive) | > 100 µM (inactive) | 29.2 µM (inactive) | 27.4 µM (inactive) | 75 µM (inactive) | > 100 µM (inactive) |  | 18.5 µM (inactive)
CC(c1ccc2c(c1)CCC1C2CC2OC23CC=CC(=O)[C@]13C)C1C[C@]2(C)O[C@]2(C)[C@H](O)O1 (stereo partly specified) | 82.4 | > 100 µM (inactive) | 52.2 µM (inactive) | > 100 µM (inactive) | 0.219 µM (active) | > 100 µM (inactive) | 47.1 µM (inactive) | 25.2 µM (inactive) | 0.791 µM (active) | 83.4 µM (inactive) |  | 3.61 µM (inactive) | 71.4 µM (inactive) | 36.6 µM (inactive) | 20.1 µM (inactive) | 13.1 µM (inactive) | 92.9 µM (inactive)
CC(C)=CC(=O)Cc1nc2ccc([N+](=O)[O-])cc2[nH]c1=O | > 100 | > 100 µM (inactive) | > 100 µM (inactive) | > 100 µM (inactive) | > 100 µM (inactive) | > 100 µM (inactive) | > 100 µM (inactive) | > 100 µM (inactive) | > 100 µM (inactive) |  | > 100 µM (inactive) |  | > 100 µM (inactive) |  | > 100 µM (inactive) |  | > 100 µM (inactive)
CC(=O)O[C@H]1C(=O)[C@@]2(C)C(C(OC(=O)c3ccccc3)[C@]3(O)CC(OC(=O)C(O)C(NC(=O)c4ccccc4)c4ccc(C)cc4)C(C)=C1C3(C)C)[C@]1(OC(C)=O)CO[C@@H]1C[C@@H]2O (stereo partly specified) | 0.897 | 0.0545 µM (active) | 0.0179 µM (active) | 0.0618 µM (active) | 0.0251 µM (active) | 3.08 µM (inactive) | 0.0094 µM (active) | 0.00826 µM (active) | 0.0995 µM (active) |  | 12 µM (inactive) | 0.0197 µM (active) | 0.0538 µM (active) | 0.0137 µM (active) | 0.033 µM (active) |  | 0.565 µM (active)
O=C(CC1(O)C(=O)Nc2ccccc21)c1ccc(F)cc1 (stereo unspecified) | > 100 | > 100 µM (inactive) | > 100 µM (inactive) | > 100 µM (inactive) | > 100 µM (inactive) | > 100 µM (inactive) | > 100 µM (inactive) | > 100 µM (inactive) |  |  | > 100 µM (inactive) |  | > 100 µM (inactive) |  | > 100 µM (inactive) |  | > 100 µM (inactive)
O=C(O)c1cc(Cl)cc(NC(=O)C(Cl)Cl)c1Cl | > 100 | > 100 µM (inactive) | > 100 µM (inactive) |  | > 100 µM (inactive) | > 100 µM (inactive) | > 100 µM (inactive) | > 100 µM (inactive) | > 100 µM (inactive) | > 100 µM (inactive) | > 100 µM (inactive) | > 100 µM (inactive) | > 100 µM (inactive) | > 100 µM (inactive) | > 100 µM (inactive) |  | 
CC(=O)Nc1ccc(/C=C/C(=O)c2sc(-c3nc(C)c(C(=O)/C=C/c4ccc(NC(C)=O)cc4)s3)nc2C)cc1 | > 100 | > 100 µM (inactive) | > 100 µM (inactive) | > 100 µM (inactive) | > 100 µM (inactive) | > 100 µM (inactive) | > 100 µM (inactive) | > 100 µM (inactive) | > 100 µM (inactive) | > 100 µM (inactive) |  | > 100 µM (inactive) | > 100 µM (inactive) | > 100 µM (inactive) | > 100 µM (inactive) | > 100 µM (inactive) | 
CC(C)(C)C1=CC(CCC(=O)Nc2ccccc2[N+](=O)[O-])=NC(S)N1 (stereo unspecified) | > 100 | > 100 µM (inactive) | > 100 µM (inactive) | > 100 µM (inactive) | > 100 µM (inactive) | > 100 µM (inactive) | > 100 µM (inactive) | > 100 µM (inactive) | > 100 µM (inactive) | > 100 µM (inactive) |  | > 100 µM (inactive) | > 100 µM (inactive) | > 100 µM (inactive) | > 100 µM (inactive) | > 100 µM (inactive) | > 100 µM (inactive)
Nc1nc(=O)n([C@@H]2CC[C@H](CO)O2)cc1F | > 100 | > 100 µM (inactive) | > 100 µM (inactive) | > 100 µM (inactive) | > 100 µM (inactive) | > 100 µM (inactive) | > 100 µM (inactive) | > 100 µM (inactive) | > 100 µM (inactive) | 42.8 µM (inactive) |  | > 100 µM (inactive) | > 100 µM (inactive) | > 100 µM (inactive) | > 100 µM (inactive) |  | > 100 µM (inactive)
CCc1c(OC(C)=O)c2c(NC3OC(COC(C)=O)C(OC(C)=O)C(OC(C)=O)C3OC(C)=O)nc(SC)nc2oc1=O (stereo unspecified) | > 100 | > 100 µM (inactive) | > 100 µM (inactive) | > 100 µM (inactive) | > 100 µM (inactive) | > 100 µM (inactive) | > 100 µM (inactive) | > 100 µM (inactive) | > 100 µM (inactive) | > 100 µM (inactive) | > 100 µM (inactive) | > 100 µM (inactive) | > 100 µM (inactive) | > 100 µM (inactive) | > 100 µM (inactive) |  | > 100 µM (inactive)
